# Source: patent US20250136578A1 (Kolm Therapeutics Inc., priority 2023, published 2025)
# What was measured:
# AR / CBP ternary complex = AR / CBP ternary complex (Homo sapiens, UniProt P10275+Q92793); assay: Ternary complex formation assay (sandwich ELISA, AR capture, CBP antibody detection) in VCaP cell lysates; assay type: cell-based; settings: treated 1.5 hours, rabbit CBP or p300 antibody detection, average, read-out: Average Ternary Complex
# In short: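 VCaP cells in 5% charcoal-stripped FBS were cultured ≥3 days and then given bifunctional compound for 1.5 h. Lysates went onto AR-antibody-coated plates. Bound CBP (or p300) was detected with a rabbit antibody plus HRP anti-rabbit, using QuantaRed chemifluorescence (ex 570/em 585) read immediately, at 5 min and at 15 min.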
# VCaP cells = assay: VCaP growth inhibition assay (CTG); assay type: cell-based; settings: Homo sapiens, 216 h, 30 pM R1881, 9 days
# In short: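 VCaP cells in phenol red-free DMEM with 5% charcoal-stripped serum were stimulated with 30 pM R1881 (final) and treated with compound from 100 nM to 10 fM final (1:5 dilutions) for 9 days at 37 °C. Viability was read by CellTiter-Glo luminescence, and IC50 came from 4-parameter logistic fits.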
# Chain of AR / CBP ternary complex (P10275 whole entry): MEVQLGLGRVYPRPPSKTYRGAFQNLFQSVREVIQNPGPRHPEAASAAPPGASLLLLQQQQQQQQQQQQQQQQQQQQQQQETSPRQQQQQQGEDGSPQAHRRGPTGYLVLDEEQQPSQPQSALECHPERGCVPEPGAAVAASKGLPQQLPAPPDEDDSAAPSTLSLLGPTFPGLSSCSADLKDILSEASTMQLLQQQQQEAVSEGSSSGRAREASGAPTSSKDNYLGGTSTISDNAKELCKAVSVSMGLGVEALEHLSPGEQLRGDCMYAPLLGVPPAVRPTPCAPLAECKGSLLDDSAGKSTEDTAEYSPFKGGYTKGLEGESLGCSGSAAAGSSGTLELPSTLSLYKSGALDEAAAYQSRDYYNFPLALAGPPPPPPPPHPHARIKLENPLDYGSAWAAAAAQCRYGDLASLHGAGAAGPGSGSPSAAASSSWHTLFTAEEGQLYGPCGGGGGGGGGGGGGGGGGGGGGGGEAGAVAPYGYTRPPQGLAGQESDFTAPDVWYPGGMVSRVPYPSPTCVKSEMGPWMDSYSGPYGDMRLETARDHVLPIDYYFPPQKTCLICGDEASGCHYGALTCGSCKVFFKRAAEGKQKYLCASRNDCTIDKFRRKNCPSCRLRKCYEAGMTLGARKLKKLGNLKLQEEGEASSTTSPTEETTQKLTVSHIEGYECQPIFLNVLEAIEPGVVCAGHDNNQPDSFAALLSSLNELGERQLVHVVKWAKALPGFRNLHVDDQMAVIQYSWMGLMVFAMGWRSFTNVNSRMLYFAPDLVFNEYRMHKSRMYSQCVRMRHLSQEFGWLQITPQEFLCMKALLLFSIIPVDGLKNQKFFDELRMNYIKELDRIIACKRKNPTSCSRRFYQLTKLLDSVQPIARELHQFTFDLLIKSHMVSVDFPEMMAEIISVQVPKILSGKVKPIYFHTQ
# Chain of AR / CBP ternary complex (Q92793 2-2442): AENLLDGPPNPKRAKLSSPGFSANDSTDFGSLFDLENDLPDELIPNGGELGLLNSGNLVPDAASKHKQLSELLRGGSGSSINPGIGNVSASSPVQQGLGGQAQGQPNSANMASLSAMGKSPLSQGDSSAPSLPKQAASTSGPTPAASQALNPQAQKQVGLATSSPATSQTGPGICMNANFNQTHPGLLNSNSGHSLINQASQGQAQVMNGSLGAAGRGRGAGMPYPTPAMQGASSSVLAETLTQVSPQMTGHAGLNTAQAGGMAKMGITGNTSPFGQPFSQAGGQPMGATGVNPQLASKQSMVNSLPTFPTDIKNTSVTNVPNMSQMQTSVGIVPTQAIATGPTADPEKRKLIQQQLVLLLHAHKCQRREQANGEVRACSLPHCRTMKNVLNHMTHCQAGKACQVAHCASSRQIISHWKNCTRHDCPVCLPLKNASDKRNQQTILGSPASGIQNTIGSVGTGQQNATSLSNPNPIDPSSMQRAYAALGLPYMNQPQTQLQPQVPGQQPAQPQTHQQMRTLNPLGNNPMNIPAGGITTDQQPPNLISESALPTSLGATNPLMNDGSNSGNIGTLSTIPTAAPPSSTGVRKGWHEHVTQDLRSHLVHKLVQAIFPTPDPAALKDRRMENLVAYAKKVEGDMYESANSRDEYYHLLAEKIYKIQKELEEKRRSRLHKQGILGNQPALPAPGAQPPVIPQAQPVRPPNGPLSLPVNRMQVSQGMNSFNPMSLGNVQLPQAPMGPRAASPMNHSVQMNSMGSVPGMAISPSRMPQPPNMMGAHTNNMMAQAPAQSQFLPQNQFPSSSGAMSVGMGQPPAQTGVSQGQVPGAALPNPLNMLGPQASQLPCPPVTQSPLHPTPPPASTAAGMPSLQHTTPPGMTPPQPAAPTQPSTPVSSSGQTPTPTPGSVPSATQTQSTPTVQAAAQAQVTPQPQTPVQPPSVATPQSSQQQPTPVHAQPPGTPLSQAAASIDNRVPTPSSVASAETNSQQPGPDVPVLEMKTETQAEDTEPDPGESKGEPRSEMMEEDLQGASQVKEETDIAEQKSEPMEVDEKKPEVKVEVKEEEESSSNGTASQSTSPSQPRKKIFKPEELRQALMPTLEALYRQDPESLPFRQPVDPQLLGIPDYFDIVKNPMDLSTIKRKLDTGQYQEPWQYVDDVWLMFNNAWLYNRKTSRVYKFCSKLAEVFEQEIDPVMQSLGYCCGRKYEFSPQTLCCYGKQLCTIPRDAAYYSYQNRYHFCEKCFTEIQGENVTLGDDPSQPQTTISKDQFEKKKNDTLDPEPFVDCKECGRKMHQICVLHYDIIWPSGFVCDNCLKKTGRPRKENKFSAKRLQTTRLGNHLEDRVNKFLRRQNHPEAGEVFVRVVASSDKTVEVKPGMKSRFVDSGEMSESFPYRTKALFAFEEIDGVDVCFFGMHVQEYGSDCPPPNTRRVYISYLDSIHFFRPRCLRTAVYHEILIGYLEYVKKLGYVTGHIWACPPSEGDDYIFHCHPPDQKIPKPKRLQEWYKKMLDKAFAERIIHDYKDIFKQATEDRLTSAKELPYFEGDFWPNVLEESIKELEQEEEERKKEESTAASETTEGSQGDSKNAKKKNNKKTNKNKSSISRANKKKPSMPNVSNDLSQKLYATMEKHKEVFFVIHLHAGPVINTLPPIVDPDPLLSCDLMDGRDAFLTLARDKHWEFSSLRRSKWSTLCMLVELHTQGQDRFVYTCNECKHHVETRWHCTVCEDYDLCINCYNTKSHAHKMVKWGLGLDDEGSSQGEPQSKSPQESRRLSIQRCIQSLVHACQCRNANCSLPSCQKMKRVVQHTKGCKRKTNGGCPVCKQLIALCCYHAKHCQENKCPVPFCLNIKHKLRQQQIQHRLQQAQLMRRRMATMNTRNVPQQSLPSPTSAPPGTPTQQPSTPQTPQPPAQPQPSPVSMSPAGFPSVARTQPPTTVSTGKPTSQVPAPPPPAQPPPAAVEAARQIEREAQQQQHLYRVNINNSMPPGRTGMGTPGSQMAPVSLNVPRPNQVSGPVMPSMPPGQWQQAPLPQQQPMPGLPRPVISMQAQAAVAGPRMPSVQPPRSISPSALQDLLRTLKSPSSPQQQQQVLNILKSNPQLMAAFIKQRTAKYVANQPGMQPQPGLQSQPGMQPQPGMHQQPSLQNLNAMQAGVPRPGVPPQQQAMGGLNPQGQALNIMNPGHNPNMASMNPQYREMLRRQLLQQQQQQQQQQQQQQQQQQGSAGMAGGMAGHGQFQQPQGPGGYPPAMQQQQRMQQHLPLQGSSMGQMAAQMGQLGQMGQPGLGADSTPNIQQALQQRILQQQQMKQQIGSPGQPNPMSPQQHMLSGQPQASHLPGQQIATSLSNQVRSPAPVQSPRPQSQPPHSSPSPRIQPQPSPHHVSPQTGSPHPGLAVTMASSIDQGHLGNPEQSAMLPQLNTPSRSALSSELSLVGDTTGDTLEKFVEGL
Structure (SMILES),EC50 (AR / CBP ternary complex) [nM],IC50 (VCaP cells) [nM]
"CC(=O)N1CCc2c(c(N3CCCc4cc(-c5cnn(C)c5)c(C(F)F)cc43)nn2C2CCN(C(=O)C3CCN(c4ccc(C(=O)N[C@H]5CC[C@H](Oc6ccc(C#N)c(Cl)c6)CC5)cc4)CC3)CC2)C1 [Compound 159, 4-[4-[4-[5-acetyl-3-[7-(difluoromethyl)-6-(1-methylpyrazol-4-yl)-3,4-dihydro-2H-quinolin-1-yl]-6,7-dihydro-4H-pyrazolo[4,3-c]pyridin-1-yl]piperidine-1-carbonyl]-1-piperidyl]-N-[4-(3-chloro-4-cyano-phenoxy)cyclohexyl]benzamide]",< 1,≤ 0.1
Cn1cc(-c2cc3c(cc2C(F)F)N(c2cc(C4=CCN(CC5CCN(c6ccc(C(=O)N[C@H]7CC[C@H](Oc8ccc(C#N)c(Cl)c8)CC7)nn6)CC5)CC4)c4c(c2)n(C)c(=O)n4C)CCC3)cn1 [Compound 148],< 1,0.1 to 1
"CC(=O)N1CCc2c(c(-c3cccc4cc(-c5cnn(CCOC6CCN(c7ccc(C(=O)N[C@H]8CC[C@H](Oc9ccc(C#N)c(Cl)c9)CC8)nn7)CC6)c5)ncc34)nn2C)C1 [Compound 65, 6-[4-[2-[4-[8-(5-acetyl-1-methyl-6,7-dihydro-4H-pyrazolo[4,3-c]pyridin-3-yl)-3-isoquinolyl]pyrazol-1-yl]ethoxy]-1-piperidyl]-N-[4-(3-chloro-4-cyano-phenoxy)cyclohexyl]pyridazine-3-carboxamide]",< 1,≤ 0.1
"CC(=O)N1CCc2c(c(N3CCCc4cc(-c5cnn(C)c5)c(C(F)F)cc43)nn2C2CCN(CCC#Cc3ccc(C(=O)N[C@H]4CC[C@H](Oc5ccc(C#N)c(Cl)c5)CC4)nn3)CC2)C1 [Compound 94, 6-[4-[4-[5-acetyl-3-[7-(difluoromethyl)-6-(1-methylpyrazol-4-yl)-3,4-dihydro-2H-quinolin-1-yl]-6,7-dihydro-4H-pyrazolo[4,3-c]pyridin-1-yl]-1-piperidyl]but-1-ynyl]-N-[4-(3-chloro-4-cyano-phenoxy)cyclohexyl]pyridazine-3-carboxamide]",1 to 10,0.1 to 1
"C[C@@H]1CC(=O)Nc2cc(C3CCN(CC4CCN(c5ccc(C(=O)N[C@H]6CC[C@H](Oc7ccc(C#N)c(Cl)c7)CC6)nn5)CC4)CC3)cc(-c3ccc4c(c3)c(-c3cnn(C)c3)nn4C)c2N1 [Compound 87, N-[4-(3-chloro-4-cyano-phenoxy)cyclohexyl]-6-[4-[[4-[(4R)-4-methyl-6-[1-methyl-3-(1-methylpyrazol-4-yl)indazol-5-yl]-2-oxo-1,3,4,5-tetrahydro-1,5-benzodiazepin-8-yl]-1-piperidyl]methyl]-1-piperidyl]pyridazine-3-carboxamide]",< 1,≤ 0.1
"CC(=O)N1CCc2c(c(N3CCCc4cc(-c5cnn(C)c5)c(C(F)F)cc43)nn2[C@H]2CC[C@H](N3CCN(c4ccc(C(=O)N[C@H]5CC[C@H](Oc6ccc(C#N)c(Cl)c6)CC5)nn4)CC3)CC2)C1 [Compound 250, 6-[4-[4-[5-acetyl-3-[7-(difluoromethyl)-6-(1-methylpyrazol-4-yl)-3,4-dihydro-2H-quinolin-1-yl]-6,7-dihydro-4H-pyrazolo[4,3-c]pyridin-1-yl]cyclohexyl]piperazin-1-yl]-N-[4-(3-chloro-4-cyano-phenoxy)cyclohexyl]pyridazine-3-carboxamide]",< 1,≤ 0.1
"CC(=O)N1CCc2c(c(-c3cccc4cc(-c5ccc(CCC6CCN(c7ccc(C(=O)N[C@H]8CC[C@H](Oc9ccc(C#N)c(Cl)c9)CC8)nn7)CC6)nc5)ncc34)nn2C2CCOCC2)C1 [Compound 25, 6-[4-[2-[5-[8-(5-acetyl-1-tetrahydropyran-4-yl-6,7-dihydro-4H-pyrazolo[4,3-c]pyridin-3-yl)-3-isoquinolyl]-2-pyridyl]ethyl]-1-piperidyl]-N-[4-(3-chloro-4-cyano-phenoxy)cyclohexyl]pyridazine-3-carboxamide]",< 1,≤ 0.1
"C[C@@H]1CC(=O)Nc2cccc(N3CCCc4cc(-c5cnn(CCC6CCN(c7ccc(C(=O)N[C@H]8CC[C@H](Oc9ccc(C#N)c(Cl)c9)CC8)nn7)CC6)c5)c(C(F)F)cc43)c2N1 [Compound 36, N-[4-(3-chloro-4-cyano-phenoxy)cyclohexyl]-6-[4-[2-[4-[7-(difluoromethyl)-1-[(4R)-4-methyl-2-oxo-1,3,4,5-tetrahydro-1,5-benzodiazepin-6-yl]-3,4-dihydro-2H-quinolin-6-yl]pyrazol-1-yl]ethyl]-1-piperidyl]pyridazine-3-carboxamide]",10 to 100,1 to 100
CC(=O)N1CCc2c(c(-c3cccc4cc(-c5ccc(N6CC(C7CCN(c8ccc(C(=O)N[C@H]9CC[C@H](Oc%10ccc(C#N)c(Cl)c%10)CC9)nn8)CC7)C6)nc5)ncc34)nn2C2CCOCC2)C1 [Compound 181],< 1,≤ 0.1
"CC(=O)N1CCc2c(c(N3CCCc4cc(-c5cnn(C)c5)c(C(F)F)cc43)nn2C2CC3(CCN(C4CCN(c5ccc(C(=O)N[C@H]6CC[C@H](Oc7ccc(C#N)c(Cl)c7)CC6)nn5)CC4)CC3)C2)C1 [Compound 239, 6-[4-[2-[5-acetyl-3-[7-(difluoromethyl)-6-(1-methylpyrazol-4-yl)-3,4-dihydro-2H-quinolin-1-yl]-6,7-dihydro-4H-pyrazolo[4,3-c]pyridin-1-yl]-7-azaspiro[3.5]nonan-7-yl]-1-piperidyl]-N-[4-(3-chloro-4-cyano-phenoxy)cyclohexyl]pyridazine-3-carboxamide]",< 1,≤ 0.1
"CC(=O)N1CCc2c(c(-c3cccc4cc(-c5cnn(C)c5)ncc34)nn2C2CCN(CC3CCN(c4ccc(C(=O)N[C@H]5CC[C@H](Oc6ccc(C#N)c(Cl)c6)CC5)cc4)CC3)CC2)C1 [Compound 162, 4-[4-[[4-[5-acetyl-3-[3-(1-methylpyrazol-4-yl)-8-isoquinolyl]-6,7-dihydro-4H-pyrazolo[4,3-c]pyridin-1-yl]-1-piperidyl]methyl]-1-piperidyl]-N-[4-(3-chloro-4-cyano-phenoxy)cyclohexyl]benzamide]",1 to 10,0.1 to 1
"Cn1cc(-c2cc3c(cc2C(F)F)N(c2cc(C4CCN(CC5CCN(c6ccc(C(=O)N[C@H]7CC[C@H](Oc8ccc(C#N)c(Cl)c8)CC7)nn6)CC5)CC4)c4c(c2)n(C)c(=O)n4C)CCC3)cn1 [Compound 33, N-[4-(3-chloro-4-cyano-phenoxy)cyclohexyl]-6-[4-[[4-[6-[7-(difluoromethyl)-6-(1-methylpyrazol-4-yl)-3,4-dihydro-2H-quinolin-1-yl]-1,3-dimethyl-2-oxo-benzimidazol-4-yl]-1-piperidyl]methyl]-1-piperidyl]pyridazine-3-carboxamide]",< 1,0.1 to 1
"CC(=O)N1CCc2c(c(N3CCCc4cc(-c5cnn(C)c5)c(C(F)F)cc43)nn2[C@H]2CC[C@H](CC3CCN(c4ccc(C(=O)N[C@H]5CC[C@H](Oc6ccc(C#N)c(Cl)c6)CC5)nn4)CC3)CC2)C1 [Compound 145, 6-[4-[[4-[5-acetyl-3-[7-(difluoromethyl)-6-(1-methylpyrazol-4-yl)-3,4-dihydro-2H-quinolin-1-yl]-6,7-dihydro-4H-pyrazolo[4,3-c]pyridin-1-yl]cyclohexyl]methyl]-1-piperidyl]-N-[4-(3-chloro-4-cyano-phenoxy)cyclohexyl]pyridazine-3-carboxamide]",< 1,0.1 to 1
CC(=O)N1CCc2c(c(-c3cccc4cc(-c5cnn(CCC6CCN(c7ccc(C(=O)N[C@H]8CC[C@H](Oc9ccc(C#N)c(Cl)c9)CC8)nn7)CC6)c5)ncc34)nn2C2CC2)C1 [Compound 82],< 1,0.1 to 1
CC(=O)N1CCc2c(c(N3CCCc4cc(-c5cnn(C)c5)c(C(F)F)cc43)nn2[C@H]2CC[C@H](N3CC4(CC(Oc5ccc(C(=O)N[C@H]6CC[C@H](Oc7ccc(C#N)c(Cl)c7)CC6)nn5)C4)C3)CC2)C1 [Compound 249],< 1,≤ 0.1
"CC(=O)N1CCc2c(c(N3CCCc4cc(-c5cnn(C)c5)c(C(F)F)cc43)nn2C2CCN(CC3CCN(c4ccc(C(=O)N[C@H]5CC[C@H](Oc6ccc(C#N)c(Cl)c6)CC5)cc4)CC3)CC2)C1 [Compound 139, 4-[4-[[4-[5-acetyl-3-[7-(difluoromethyl)-6-(1-methylpyrazol-4-yl)-3,4-dihydro-2H-quinolin-1-yl]-6,7-dihydro-4H-pyrazolo[4,3-c]pyridin-1-yl]-1-piperidyl]methyl]-1-piperidyl]-N-[4-(3-chloro-4-cyano-phenoxy)cyclohexyl] benzamide]",< 1,≤ 0.1
"CC(=O)N1CCc2c(c(N3CCCc4cc(-c5cnn(C)c5)c(C(F)F)cc43)nn2[C@H]2CC[C@@H](N3CCC4(CC3)CN(c3ccc(C(=O)N[C@H]5CC[C@H](Oc6ccc(C#N)c(Cl)c6)CC5)nn3)C4)CC2)C1 [Compound 192, 6-[7-[4-[5-acetyl-3-[7-(difluoromethyl)-6-(1-methylpyrazol-4-yl)-3,4-dihydro-2H-quinolin-1-yl]-6,7-dihydro-4H-pyrazolo[4,3-c]pyridin-1-yl]cyclohexyl]-2,7-diazaspiro[3.5]nonan-2-yl]-N-[4-(3-chloro-4-cyano-phenoxy)cyclohexyl]pyridazine-3-carboxamide]",< 1,≤ 0.1
"CC(=O)N1CCc2c(c(-c3cccc4cc(-c5cnn(CCC6CCN(c7ccc(C(=O)N[C@H]8CC[C@H](Oc9ccc(C#N)c(Cl)c9)CC8)nn7)CC6)c5)ncc34)nn2C2CCC2)C1 [Compound 83, 6-[4-[2-[4-[8-(5-acetyl-1-cyclobutyl-6,7-dihydro-4H-pyrazolo[4,3-c]pyridin-3-yl)-3-isoquinolyl]pyrazol-1-yl]ethyl]-1-piperidyl]-N-[4-(3-chloro-4-cyanophenoxy)cyclohexyl]pyridazine-3-carboxamide]",< 1,0.1 to 1
